# Non-standard residues stand in square brackets, D forms with d. Residues, ends and D or L forms follow the SMILES beside them. *: point of attachment. NHCH2CH2(piperidin-1-yl) = C1CCN(CCN*)CC1; dPhe(4-Cl) = N[C@H](Cc1ccc(Cl)cc1)C(=O)O; NH(2-(2-pyridyl)ethyl) = c1ccc(CCN*)nc1; NH(2-morpholinoethyl) = C(CN1CCOCC1)N*; d2Nal = N[C@H](Cc1ccc2ccccc2c1)C(=O)O; NMeY = CN[C@@H](Cc1ccc(O)cc1)C(=O)O; d3Pal = N[C@H](Cc1cccnc1)C(=O)O; NH(3-picolyl) = c1cncc(CN*)c1; Nicotinoyl = O=C(c1cccnc1)*; X13 = C(CN*)CN1CCOCC1; X5 = C1CN2CCC1C(N*)C2; NH(CH2)4OH = OCCCCN*; X1 = CC1CCCCN1CCCN*; X3 = O=C1CCCN1CCCN*; X7 = CN1CCCC1CCN*; X8 = Cn1cccc1CCN*
# Biological target: T1, LH release from rat pituitary cells (Rattus norvegicus, UniProt P30969)
# T1 sequence (P30969 1-327): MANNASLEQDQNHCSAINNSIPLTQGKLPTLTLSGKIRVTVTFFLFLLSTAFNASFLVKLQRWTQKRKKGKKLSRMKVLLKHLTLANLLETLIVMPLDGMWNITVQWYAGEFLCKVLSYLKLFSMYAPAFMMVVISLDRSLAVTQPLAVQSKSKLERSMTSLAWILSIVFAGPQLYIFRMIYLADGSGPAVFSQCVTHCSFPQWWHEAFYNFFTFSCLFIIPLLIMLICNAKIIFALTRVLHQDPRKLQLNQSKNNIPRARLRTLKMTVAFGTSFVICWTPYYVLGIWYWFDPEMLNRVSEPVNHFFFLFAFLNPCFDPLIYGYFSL
# Test: in vitro inhibition of LH release from rat pituitary cells (pA2)
# Format: cell-based
# Details: pA2 = negative logarithm of antagonist concentration required to shift the response curve of the agonist leuprolide to two-fold higher concentration
# Procedure: Representative compounds of the present invention were evaluated in vitro for inhibition of LH release from rat pituitary cells (pA2). Methods for the assay procedures arc described by F. Haviv, et al. J. Med. Chem., 32:2340-2344 (1989). Values of pA2 are the negative logarithms of the concentration of the particular antagonist test compound required to shift the response curve produced by the agonist leuprolide to two-fold higher concentration. Typically values of 7.0 or greater are indicative of good LHRH antagonist potency, with values of 8.0 or greater being preferred. Leuprolide LHRH agonist, disclosed and claimed in U.S. Pat. No. 4,005,063, has the structure 5-oxo-Pro^1 -His^2 -Trp^3 -Ser^4 -Tyr^5 -D-Leu^6 -Leu^7 -Arg^8 -Pro^9 -NHEt.
row,Compound,LHRH antagonist potency (pA2)
1,"CC(=O)N[C@H](Cc1ccc2ccccc2c1)C(=O)N[C@H](Cc1ccc(Cl)cc1)C(=O)N[C@H](Cc1cccnc1)C(=O)N[C@@H](CO)C(=O)N(C)[C@@H](Cc1ccc(O)cc1)C(=O)N[C@H](CCCCNC(=O)c1cccnc1)C(=O)N[C@@H](CC(C)C)C(=O)NCc1cccnc1 [Example 24, NAcD2Nal-D4ClPhe-D3Pal-Ser-NMeTyr-DLys(Nic)-Leu-NH--CH2 -(3-pyridine)] (Ac-[d2Nal][dPhe(4-Cl)][d3Pal]S[NMeY][dK](Nicotinoyl)L-{NH(3-picolyl)})",8.30
2,"CC(=O)N[C@H](Cc1ccc2ccccc2c1)C(=O)N[C@H](Cc1ccc(Cl)cc1)C(=O)N[C@H](Cc1cccnc1)C(=O)N[C@@H](CO)C(=O)N(C)[C@@H](Cc1ccc(O)cc1)C(=O)N[C@H](CCCCNC(=O)c1cccnc1)C(=O)N[C@@H](CC(C)C)C(=O)NC1CN2CCC1CC2 (stereo partly drawn) [Example 25, NAcD2Nal-D4ClPhe-D3Pal-Ser-NMeTyr-Dlys(Nic)-Leu-NH--(3-guinuclidine)] (Ac-[d2Nal][dPhe(4-Cl)][d3Pal]S[NMeY][dK](Nicotinoyl)L-X5)",10.02
3,"CC(=O)N[C@H](Cc1ccc2ccccc2c1)C(=O)N[C@H](Cc1ccc(Cl)cc1)C(=O)N[C@H](Cc1cccnc1)C(=O)N[C@@H](CO)C(=O)N(C)[C@@H](Cc1ccc(O)cc1)C(=O)N[C@H](CCCCNC(=O)c1cccnc1)C(=O)N[C@@H](CC(C)C)C(=O)NCCN1CCCCC1 [Example 26, NAcD2Nal-D4ClPhe-D3Pal-Ser-NMeTyr-DLys(Nic)-Leu-NH--CH2 --CH2 -(1-piperidine)] (Ac-[d2Nal][dPhe(4-Cl)][d3Pal]S[NMeY][dK](Nicotinoyl)L-{NHCH2CH2(piperidin-1-yl)})",9.30
4,"CC(=O)N[C@H](Cc1ccc2ccccc2c1)C(=O)N[C@H](Cc1ccc(Cl)cc1)C(=O)N[C@H](Cc1cccnc1)C(=O)N[C@@H](CO)C(=O)N(C)[C@@H](Cc1ccc(O)cc1)C(=O)N[C@H](CCCCNC(=O)c1cccnc1)C(=O)N[C@@H](CC(C)C)C(=O)NCCN1CCOCC1 [Example 27, NAcD2Nal-D4ClPhe-D3Pal-Ser-NMeTyr-DLys(Nic)-Leu-NH--CH2 --CH2 -(1-norpholine)] (Ac-[d2Nal][dPhe(4-Cl)][d3Pal]S[NMeY][dK](Nicotinoyl)L-{NH(2-morpholinoethyl)})",8.30
5,"CC(=O)N[C@H](Cc1ccc2ccccc2c1)C(=O)N[C@H](Cc1ccc(Cl)cc1)C(=O)N[C@H](Cc1cccnc1)C(=O)N[C@@H](CO)C(=O)N(C)[C@@H](Cc1ccc(O)cc1)C(=O)N[C@H](CCCCNC(=O)c1cccnc1)C(=O)N[C@@H](CC(C)C)C(=O)NCCc1ccccn1 [Example 28, NAcD2Nal-D4ClPhe-D3Pal-Ser-NMeTyr-DLys(Nic)-Leu-NH--CH2 --CH2 -(2-pyridine)] (Ac-[d2Nal][dPhe(4-Cl)][d3Pal]S[NMeY][dK](Nicotinoyl)L-{NH(2-(2-pyridyl)ethyl)})",8.10
6,"CC(=O)N[C@H](Cc1ccc2ccccc2c1)C(=O)N[C@H](Cc1ccc(Cl)cc1)C(=O)N[C@H](Cc1cccnc1)C(=O)N[C@@H](CO)C(=O)N(C)[C@@H](Cc1ccc(O)cc1)C(=O)N[C@H](CCCCNC(=O)c1cccnc1)C(=O)N[C@@H](CC(C)C)C(=O)NCCc1cccn1C [Example 29, NAcD2Nal-D4ClPhe-D3Pal-Ser-NMeTyr-DLys(Nic)-Leu-NH--CH2 --CH2 -[2-(1-methyl)pyrrole]] (Ac-[d2Nal][dPhe(4-Cl)][d3Pal]S[NMeY][dK](Nicotinoyl)L-X8)",8.30
7,"CC(=O)N[C@H](Cc1ccc2ccccc2c1)C(=O)N[C@H](Cc1ccc(Cl)cc1)C(=O)N[C@H](Cc1cccnc1)C(=O)N[C@@H](CO)C(=O)N(C)[C@@H](Cc1ccc(O)cc1)C(=O)N[C@H](CCCCNC(=O)c1cccnc1)C(=O)N[C@@H](CC(C)C)C(=O)NCCC1CCCN1C (stereo partly drawn) [Example 30, NAcD2Nal-D4ClPhe-D3Pal-Ser-NMeTyr-DLys(Nic)-Leu-NH--CH2 --CH2 -[2-(1-methyl)pyrrolidine]] (Ac-[d2Nal][dPhe(4-Cl)][d3Pal]S[NMeY][dK](Nicotinoyl)L-X7)",9.80
8,"CC(=O)N[C@H](Cc1ccc2ccccc2c1)C(=O)N[C@H](Cc1ccc(Cl)cc1)C(=O)N[C@H](Cc1cccnc1)C(=O)N[C@@H](CO)C(=O)N(C)[C@@H](Cc1ccc(O)cc1)C(=O)N[C@H](CCCCNC(=O)c1cccnc1)C(=O)N[C@@H](CC(C)C)C(=O)NCCCN1CCOCC1 [Example 31, NAcD2Nal-D4ClPhe-D3Pal-Ser-NMeTyr-DLys(Nic)-Leu-NH--CH2 CH2 CH2 -(1-morpholine)] (Ac-[d2Nal][dPhe(4-Cl)][d3Pal]S[NMeY][dK](Nicotinoyl)L-X13)",9.30
9,"CC(=O)N[C@H](Cc1ccc2ccccc2c1)C(=O)N[C@H](Cc1ccc(Cl)cc1)C(=O)N[C@H](Cc1cccnc1)C(=O)N[C@@H](CO)C(=O)N(C)[C@@H](Cc1ccc(O)cc1)C(=O)N[C@H](CCCCNC(=O)c1cccnc1)C(=O)N[C@@H](CC(C)C)C(=O)NCCCN1CCCCC1C (stereo partly drawn) [Example 32, NAcD2Nal-D4ClPhe-D3Pal-Ser-NMeTyr-DLys(Nic)-Leu-NH--CH2 CH2 CH2 -[1-(2-methyl)piperidine]] (Ac-[d2Nal][dPhe(4-Cl)][d3Pal]S[NMeY][dK](Nicotinoyl)L-X1)",9.07
10,"CC(=O)N[C@H](Cc1ccc2ccccc2c1)C(=O)N[C@H](Cc1ccc(Cl)cc1)C(=O)N[C@H](Cc1cccnc1)C(=O)N[C@@H](CO)C(=O)N(C)[C@@H](Cc1ccc(O)cc1)C(=O)N[C@H](CCCCNC(=O)c1cccnc1)C(=O)N[C@@H](CC(C)C)C(=O)NCCCN1CCCC1=O [Example 33, NAcD2Nal-D4ClPhe-D3Pal-Ser-NMeTyr-DLys(Nic)-Leu-NH--CH2 CH2 CH2 -(1-pyrrolidin-2-one)] (Ac-[d2Nal][dPhe(4-Cl)][d3Pal]S[NMeY][dK](Nicotinoyl)L-X3)",8.30
11,"CC(=O)N[C@H](Cc1ccc2ccccc2c1)C(=O)N[C@H](Cc1ccc(Cl)cc1)C(=O)N[C@H](Cc1cccnc1)C(=O)N[C@@H](CO)C(=O)N(C)[C@@H](Cc1ccc(O)cc1)C(=O)N[C@H](CCCCNC(=O)c1cccnc1)C(=O)N[C@@H](CC(C)C)C(=O)NCCCCO [Example 34, NAcD2Nal-D4ClPhe-D3Pal-Ser-NMeTyr-DLys(Nic)-Leu-NH--CH2 CH2 CH2 CH2 OH] (Ac-[d2Nal][dPhe(4-Cl)][d3Pal]S[NMeY][dK](Nicotinoyl)L-{NH(CH2)4OH})",8.71

# From US6191115A, “C-terminus modified heptapeptide LHRH analogs” (Abbott Laboratories, priority 1999, dated 2001)
